Results published in ChEMBL document CHEMBL4196190, “Tetrahydrobenzofuran-6(2 H)-one Neolignans from Ocotea heterochroma: Their Platelet Activating Factor (PAF) Antagonistic Activity and in Silico Insights into the PAF Receptor Binding Mode” (J Nat Prod, 2018).

test: Antagonist activity at rabbit PAF receptor assessed as inhibition of PAF-induced platelet aggregation incubated for 5 mins followed by PAF addition; settings: Oryctolagus cuniculus

| Compound | IC50 [nM] |
| --- | --- |
| C[C@@H]1C(=O)O[C@H]2[C@H](O)[C@@]34[C@H]5C[C@@H](C(C)(C)C)[C@]36[C@@H](OC(=O)[C@@H]6O)O[C@@]4(C(=O)O5)[C@@]12O [GINKOLIDE B] | 930 |
| C=CC[C@H]1C[C@]2(OC)C(=C(OC)C1=O)O[C@@H](c1cc(OC)c3c(c1)OCO3)[C@@H]2C | 390 |
| C=CCC1=C[C@]2(OC)[C@H](C)[C@@H](c3cc(OC)c4c(c3)OCO4)[C@](OC)(C1=O)[C@H]2O [CINERIN C] | 1090 |

These reach a lower IC50. Values come first.

| IC50 [nM] | Compound |
| --- | --- |
| 230 | C=CC[C@H]1C[C@]2(OC)C(=C(OC)C1=O)O[C@@H](c1cc(OC)c(OC)c(OC)c1)[C@@H]2C |
| 150 | C=CCC1=C[C@@]2(OC)C(=CC1=O)O[C@H](c1ccc(OC)c(OC)c1)[C@H]2C [KADSURENONE] |
